Structures are written as SMILES.

Experiment [1] has as its target T1, yeast Hsp90 (Hsp82) (Saccharomyces cerevisiae, UniProt P02829).
T1 construct: wild-type NMC; coilNMC also measured
The experiment is described as follows: BODIPY-GA anisotropy/displacement; GA-bead capture from yeast lysate. It is filed as binding.

Another experiment concerns the target T2, Hsp90β (Homo sapiens, UniProt P08238).
T2 construct: gene HSP90AB1

Experiment [2] deals with T1, yeast Hsp90 (Hsp82). In words: PU-bead capture from yeast lysate. Format: cell-based.
For the next experiment, the target named is T3, yeast Hsp90 (Saccharomyces cerevisiae, UniProt P02829).
T3 construct: gene HSP82; purified yeast Hsp90
T3 sequence (P02829 whole entry): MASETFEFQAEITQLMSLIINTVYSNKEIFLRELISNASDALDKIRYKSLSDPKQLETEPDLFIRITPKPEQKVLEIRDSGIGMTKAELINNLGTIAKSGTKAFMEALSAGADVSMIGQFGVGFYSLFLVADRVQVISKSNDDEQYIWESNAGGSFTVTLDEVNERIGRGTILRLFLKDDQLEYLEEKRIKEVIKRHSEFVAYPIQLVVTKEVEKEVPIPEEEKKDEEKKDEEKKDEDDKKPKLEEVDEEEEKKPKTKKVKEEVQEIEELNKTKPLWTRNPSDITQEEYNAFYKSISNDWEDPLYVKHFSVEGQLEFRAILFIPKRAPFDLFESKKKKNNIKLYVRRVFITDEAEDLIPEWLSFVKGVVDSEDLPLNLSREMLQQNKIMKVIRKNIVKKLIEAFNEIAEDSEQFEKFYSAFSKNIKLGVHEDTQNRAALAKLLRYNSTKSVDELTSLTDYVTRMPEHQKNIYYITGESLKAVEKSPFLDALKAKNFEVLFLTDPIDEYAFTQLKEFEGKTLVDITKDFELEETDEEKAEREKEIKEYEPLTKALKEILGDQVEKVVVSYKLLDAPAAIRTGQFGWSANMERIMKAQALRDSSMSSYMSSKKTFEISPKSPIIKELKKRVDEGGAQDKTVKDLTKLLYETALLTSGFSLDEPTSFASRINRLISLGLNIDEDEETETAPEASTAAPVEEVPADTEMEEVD
In words: DMS cross-linking of N domain dimers; p23 binding by fluorescence anisotropy. Format: biochemical. For orientation: Fluorescence polarisation rises when a labelled molecule tumbles more slowly, as on binding a larger partner.

T1 sequence (P02829 whole entry): as above
T2 sequence (P08238 2-724): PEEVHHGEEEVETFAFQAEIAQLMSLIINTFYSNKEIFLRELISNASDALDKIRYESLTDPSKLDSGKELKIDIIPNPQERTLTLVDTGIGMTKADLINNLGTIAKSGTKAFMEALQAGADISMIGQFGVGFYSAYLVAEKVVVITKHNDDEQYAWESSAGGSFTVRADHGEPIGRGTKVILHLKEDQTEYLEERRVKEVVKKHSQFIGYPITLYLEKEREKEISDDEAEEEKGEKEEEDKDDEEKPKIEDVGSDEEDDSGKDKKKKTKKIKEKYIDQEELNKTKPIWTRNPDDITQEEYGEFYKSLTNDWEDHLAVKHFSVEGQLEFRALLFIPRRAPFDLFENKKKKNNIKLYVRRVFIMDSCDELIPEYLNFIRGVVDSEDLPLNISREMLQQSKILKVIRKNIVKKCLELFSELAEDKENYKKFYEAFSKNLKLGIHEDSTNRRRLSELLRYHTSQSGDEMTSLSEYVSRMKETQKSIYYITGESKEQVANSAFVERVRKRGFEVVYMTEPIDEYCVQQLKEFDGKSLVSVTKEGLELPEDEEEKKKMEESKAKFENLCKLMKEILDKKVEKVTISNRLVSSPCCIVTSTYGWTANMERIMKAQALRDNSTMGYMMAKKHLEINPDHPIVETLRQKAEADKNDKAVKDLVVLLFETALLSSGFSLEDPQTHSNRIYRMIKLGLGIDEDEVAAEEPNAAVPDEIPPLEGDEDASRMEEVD

On to `COC1=C2C[C@@H](C)C[C@H](OC)[C@H](O)[C@@H](C)/C=C(\C)[C@H](OC(N)=O)[C@@H](OC)/C=C\C=C(/C)C(=O)NC(=CC1=O)C2=O` [GA, geldanamycin], for which the “BODIPY-GA anisotropy/displacement; GA-bead capture from yeast lysate” value on yeast Hsp90 (Hsp82) [1] is recorded as “Coiled-coil yeast Hsp90 (coilNMC) has a similar affinity for GA as wild-type Hsp90 (NMC)”. Further, the “GA-agarose capture of Flag-Hsp90β from 293-H cell lysate” value at Hsp90β was “GA-beads bound the non-phosphorylatable mutants (Hsp90α-Y197F and Hsp90β-Y192F) similarly to wild-type Hsp90”.
As to `CC(C)NCCCn1c(Sc2cc3c(cc2I)OCO3)nc2c(N)ncnc21` [PU, PU-H71], the “PU-bead capture from yeast lysate” value on yeast Hsp90 (Hsp82) [2] is “both GA- and PU-beads efficiently isolated coiled-coil Hsp90 from yeast lysates, compared to wild-type Hsp90”.
For the molecule `Nc1ncnc2c1ncn2[C@@H]1O[C@H](CO[P@](=O)(O)O[P@](=O)(O)NP(=O)(O)O)[C@@H](O)[C@H]1O` [AMP-PNP], the “DMS cross-linking of N domain dimers; p23 binding by fluorescence anisotropy” value at yeast Hsp90 is “Only AMP-PNP promoted significant N domain dimerization (Figure 2F)”.

The record behind these values is PMC3759666, “Post-translational modification and conformational state of Heat Shock Protein 90 differentially affect binding of chemically diverse small molecule inhibitors” (Oncotarget, 2013).
